In ChEMBL document CHEMBL2331400, “Structure-based design and evaluation of naphthalene diimide G-quadruplex ligands as telomere targeting agents in pancreatic cancer cells” (J Med Chem, 2013):
Active and inactive are the calls of the source. No cut-off for these calls is given here.

Experiments:
MIA PaCa-2 [1] = assay: Downregulation of PPP1R15A gene expression in human MIAPaCa2 cells at subcytotoxic concentration after 24 hrs by qPCR analysis; assay type: functional, cell-based
MIA PaCa-2 [2] = assay: Downregulation of DDIT3 gene expression in human MIAPaCa2 cells at subcytotoxic concentration after 24 hrs by qPCR analysis; assay type: functional, cell-based
MIA PaCa-2 [3] = assay: Upregulation of PPP1R15A gene expression in human MIAPaCa2 cells at cytotoxic concentration after 24 hrs by qPCR analysis; assay type: functional, cell-based
MIA PaCa-2 [4] = assay: Downregulation of HUS1 gene expression in human MIAPaCa2 cells at 20 to 160 nM after 24 hrs by qPCR analysis relative to solvent-treated control; assay type: functional, cell-based
MIA PaCa-2 [5] = assay: Downregulation of […] gene expression in human MIAPaCa2 cells at 20 to 80 nM after 24 hrs by qPCR analysis relative to solvent-treated control; assay type: functional
unidentified [6] = assay: Stabilization of HSP90a promoter sequence 5'-FAM-d(GGGCCAAAGGGAAGGGGTGGG)-TAMRA-3' (unknown origin) assessed as melting temperature at 1 uM by FRET assay
786-0 = assay: Cytotoxicity against human 786-0 cells assessed as growth inhibition after 96 hrs by SRB assay; assay type: functional, cell-based; conditions: 786-0, 96 h
MIA PaCa-2 [7] = assay: Downregulation of CDK7 gene expression in human MIAPaCa2 cells at 20 to 160 nM after 24 hrs by qPCR analysis relative to solvent-treated control; assay type: functional, cell-based
MIA PaCa-2 [8] = assay: Upregulation of PPARG gene expression in human MIAPaCa2 cells at 20 to 80 nM after 24 hrs by qPCR analysis relative to solvent-treated control; assay type: functional
MIA PaCa-2 [9] = assay: Downregulation of GADD45G gene expression in human MIAPaCa2 cells at subcytotoxic concentration after 24 hrs by qPCR analysis; assay type: functional, cell-based
MCF7 = assay: Cytotoxicity against human MCF7 cells assessed as growth inhibition after 96 hrs by SRB assay; assay type: functional, cell-based; conditions: MCF7, 96 h
MIA PaCa-2 [10] = assay: Induction of ATR/[…] gene expression in human MIAPaCa2 cells by qPCR analysis; assay type: functional, cell-based
MIA PaCa-2 [11] = assay: Downregulation of PARP1 gene expression in human MIAPaCa2 cells at 20 to 160 nM after 24 hrs by qPCR analysis relative to solvent-treated control; assay type: functional, cell-based
A549 = assay: Cytotoxicity against human A549 cells assessed as growth inhibition after 96 hrs by SRB assay; assay type: functional, cell-based; conditions: A549, 96 h
MIA PaCa-2 [12] = assay: Cytotoxicity against human MIAPaCa2 cells assessed as growth inhibition at 80 nM after 72 hrs by microscopic analysis; assay type: functional, cell-based
MIA PaCa-2 [13] = assay: Upregulation of NTHL1 gene expression in human MIAPaCa2 cells at sublethal concentration after 24 hrs by qPCR analysis; assay type: functional, cell-based
MIA PaCa-2 [14] = assay: Upregulation of GADD45A gene expression in human MIAPaCa2 cells at cytotoxic concentration after 24 hrs by qPCR analysis; assay type: functional, cell-based
MIA PaCa-2 [15] = assay: Downregulation of GADD45A gene expression in human MIAPaCa2 cells at subcytotoxic concentration after 24 hrs by qPCR analysis; assay type: functional, cell-based
unidentified [16] = assay: Stabilization of duplex DNA T-loop (unknown origin) 5'-FAM-dTATAGCTATA-HEG-TATAGCTATA-TAMRA-3' assessed as melting temperature at 1 uM by FRET assay
MIA PaCa-2 [17] = assay: Induction of ATM/[…] gene expression in human MIAPaCa2 cells by qPCR analysis; assay type: functional, cell-based
MIA PaCa-2 [18] = assay: Downregulation of PPM1D gene expression in human MIAPaCa2 cells at subcytotoxic concentration after 24 hrs by qPCR analysis; assay type: functional, cell-based
MIA PaCa-2 [19] = assay: Downregulation of UNG gene expression in human MIAPaCa2 cells at 160 nM after 24 hrs by qPCR analysis; assay type: functional, cell-based
MIA PaCa-2 [20] = assay: Downregulation of PTGES3 gene expression in human MIAPaCa2 cells at 20 to 80 nM after 24 hrs by qPCR analysis relative to solvent-treated control; assay type: functional, cell-based
MIA PaCa-2 [21] = assay: Induction of gamma-H2AX gene expression in human MIAPaCa2 cells by qPCR analysis; assay type: functional, cell-based
Homo sapiens = species on record: Homo sapiens; assay: Stabilization of human telomeric G-quadruplex DNA sequence 5'-FAM-d(GGG[TTAGGG]3)-TAMRA-3' assessed as melting temperature at 1 uM by FRET assay
MIA PaCa-2 [22] = assay: Upregulation of GADD45G gene expression in human MIAPaCa2 cells at cytotoxic concentration after 24 hrs by qPCR analysis; assay type: functional, cell-based
MIA PaCa-2 [23] = assay: Inhibition of telomerase activity in human MIAPaCa2 cells assessed as telomere elongation at 5 to 7.5 nM after 7 days by TRAP-LIG assay; assay type: cell-based
MIA PaCa-2 [24] = assay: Downregulation of RAD50 gene expression in human MIAPaCa2 cells at 20 to 160 nM after 24 hrs by qPCR analysis relative to solvent-treated control; assay type: functional, cell-based
MIA PaCa-2 [25] = assay: Upregulation of PRKCB gene expression in human MIAPaCa2 cells at 20 to 80 nM after 24 hrs by qPCR analysis relative to solvent-treated control; assay type: functional
MIA PaCa-2 [26] = assay: Upregulation of DDIT3 gene expression in human MIAPaCa2 cells at cytotoxic concentration after 24 hrs by qPCR analysis; assay type: functional, cell-based
MIA PaCa-2 [27] = assay: Upregulation of NHP2 gene expression in human MIAPaCa2 cells at 20 to 80 nM after 24 hrs by qPCR analysis relative to solvent-treated control; assay type: functional
[28] = Cytotoxicity against human RCC4 cells assessed as growth inhibition after 96 hrs by SRB assay; assay type: functional, cell-based; conditions: RCC4, 96 h
MIA PaCa-2 [29] = assay: Downregulation of MPG gene expression in human MIAPaCa2 cells at 20 to 160 nM after 24 hrs by qPCR analysis relative to solvent-treated control; assay type: functional, cell-based
MIA PaCa-2 [30] = assay: Cytotoxicity against human MIAPaCa2 cells assessed as growth inhibition at 160 nM after 72 hrs by microscopic analysis; assay type: functional, cell-based
MIA PaCa-2 [31] = assay: Induction of senescence in human MIAPaCa2 cells at 3.3 to 6.6 nM after 7 days by beta-galactosidase assay relative to vehicle-treated control; assay type: functional
MIA PaCa-2 [32] = assay: Upregulation of MYC gene expression in human MIAPaCa2 cells at 20 to 80 nM by qPCR analysis relative to solvent-treated control; assay type: functional
MIA PaCa-2 [33] = assay: Cytotoxicity against human MIAPaCa2 cells assessed as growth inhibition at 5 to 40 nM up to 96 hrs by microscopic analysis; assay type: functional, cell-based
MIA PaCa-2 [34] = assay: Downregulation of POT1 gene expression in human MIAPaCa2 cells at 20 to 80 nM after 24 hrs by qPCR analysis relative to solvent-treated control; assay type: functional, cell-based
MIA PaCa-2 [35] = assay: Cytotoxicity against human MIAPaCa2 cells assessed as growth inhibition after 96 hrs by SRB assay; assay type: functional, cell-based; conditions: MIA PaCa-2, 96 h
unidentified [36] = assay: Stabilization of HSP90b promoter sequence 5'-FAM-d(GGGCGGGCCAAAGGGAAGGGG)-TAMRA-3' (unknown origin) assessed as melting temperature at 1 uM by FRET assay
MIA PaCa-2 [37] = assay: Cytotoxicity against human MIAPaCa2 cells assessed as growth inhibition at 5 to 40 nM after 144 hrs by microscopic analysis; assay type: functional, cell-based

Compound: CN1CCN(CCCNc2cc3c4c(c(NCCCN5CCN(C)CC5)cc5c4c2C(=O)N(CCCN2CCOCC2)C5=O)C(=O)N(CCCN2CCOCC2)C3=O)CC1
- Activity (MIA PaCa-2 [1]): inactive
- Activity (MIA PaCa-2 [2]): inactive
- Activity (MIA PaCa-2 [3]): Active
- Activity (MIA PaCa-2 [4]): Active
- fold change (FC) (MIA PaCa-2 [5]): >2
- ΔTm (unidentified [6]): 33.1 °C
- IC50 (786-0): 320 nM
- Activity (MIA PaCa-2 [7]): Active
- fold change (FC) (MIA PaCa-2 [8]): >2
- Activity (MIA PaCa-2 [9]): inactive
- IC50 (MCF7): 70 nM
- Activity (MIA PaCa-2 [10]): inactive
- Activity (MIA PaCa-2 [11]): Active
- IC50 (A549): < 10 nM
- growth inhibition (GI) (MIA PaCa-2 [12]): inactive
- Activity (MIA PaCa-2 [13]): inactive
- Activity (MIA PaCa-2 [14]): Active
- Activity (MIA PaCa-2 [15]): inactive
- ΔTm (unidentified [16]): 4.9 °C
- Activity (MIA PaCa-2 [17]): inactive
- Activity (MIA PaCa-2 [18]): inactive
- Activity (MIA PaCa-2 [19]): Active
- Activity (MIA PaCa-2 [20]): Active
- Activity (MIA PaCa-2 [21]): Active
- ΔTm (Homo sapiens): 26.6 °C
- Activity (MIA PaCa-2 [22]): Active
- inhibition (MIA PaCa-2 [23]): inactive
- Activity (MIA PaCa-2 [24]): Active
- fold change (FC) (MIA PaCa-2 [25]): >2
- Activity (MIA PaCa-2 [26]): Active
- fold change (FC) (MIA PaCa-2 [27]): >2
- IC50 [28]: 560 nM
- Activity (MIA PaCa-2 [29]): Active
- growth inhibition (GI) (MIA PaCa-2 [30]): Active
- Activity (MIA PaCa-2 [31]): 50%
- fold change (FC) (MIA PaCa-2 [32]): >2
- growth inhibition (GI) (MIA PaCa-2 [33]): Active
- Activity (MIA PaCa-2 [34]): Active
- IC50 (MIA PaCa-2 [35]): 10 nM
- ΔTm (unidentified [36]): 28.6 °C
- growth inhibition (GI) (MIA PaCa-2 [37]): inactive
